Source: patent US8222279B2, “Small molecule insulin mimetics absent quinones” (Duke University, priority 2006, dated 2012)

What was measured:
[1] = tested on: differentiated PC12 neurons; assay: Protection of differentiated PC12 neurons from apoptotic cell death induced by NGF withdrawal; type: cell-based; conditions: 100 ng/ml NGF; 48 h; control cells 64±1%
Method: A library of asterriquinones was screened using a 96-well ELISA assay that detects phosphorylated TrkA, the NGF receptor. We identified many compounds from this library that activated TrkA in CHO cells. The library was also screened for dose-dependent cytotoxicity in these cells. From these assays, we selected two compounds 1H5 and 5E5 for further study based on NGF agonist activity and low toxicity. […] 1H5 at 30 μM has 49±4% the effect of 100 ng/ml NGF. […] Despite this, 1H5 can protect differentiated PC12 neurons from apoptotic cell death induced by NGF withdrawal for 48 h. Cell death is 64±1% in control PC12 cells, 52±3% in cell treated with 30 μM 1H5, and 18±6% in cells treated with 100 ng/ml NGF. […] 5E5 at 30 μM has 212±11% the effect of 100 ng/ml NGF on CHO-Trk cells. It is non-toxic at concentrations up to 10 μM. […] 5E5 also causes phosphorylation of FRS2/SNT, a differentiation-specific target of NGF in neurons and PC12 cells (2.7-fold v.s. NGF).

human insulin receptor = target: T1, human insulin receptor (Homo sapiens, UniProt P06213); assay: Insulin receptor autophosphorylation (phosphotyrosines 1162/1163) immunoblot in CHO-IR cells; type: cell-based; conditions: increasing concentrations, 10 min at 37° C., immunoblot not shown
T1 construct: expressed in transfected cells; host or cells: CHO-IR (Chinese hamster ovary cells)
T1 sequence (P06213 763-1382 limits assumed): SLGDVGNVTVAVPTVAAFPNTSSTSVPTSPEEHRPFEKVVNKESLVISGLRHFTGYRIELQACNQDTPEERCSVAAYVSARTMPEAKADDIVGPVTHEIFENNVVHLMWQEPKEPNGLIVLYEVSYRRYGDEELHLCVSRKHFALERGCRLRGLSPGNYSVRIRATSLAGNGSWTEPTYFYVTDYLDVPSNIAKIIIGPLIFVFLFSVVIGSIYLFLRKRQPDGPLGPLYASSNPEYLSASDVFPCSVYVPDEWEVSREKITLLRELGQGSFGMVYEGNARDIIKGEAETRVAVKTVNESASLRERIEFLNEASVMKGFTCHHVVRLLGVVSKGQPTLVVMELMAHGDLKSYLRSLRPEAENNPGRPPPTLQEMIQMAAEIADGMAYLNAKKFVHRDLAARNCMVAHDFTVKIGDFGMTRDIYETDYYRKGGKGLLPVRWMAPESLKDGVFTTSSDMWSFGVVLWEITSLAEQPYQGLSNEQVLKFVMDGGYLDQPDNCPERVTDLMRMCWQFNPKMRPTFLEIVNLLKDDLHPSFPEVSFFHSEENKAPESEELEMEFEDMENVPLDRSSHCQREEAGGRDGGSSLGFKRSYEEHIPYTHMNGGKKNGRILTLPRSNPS
T1 sequence (P06213 28-758 partner limits assumed): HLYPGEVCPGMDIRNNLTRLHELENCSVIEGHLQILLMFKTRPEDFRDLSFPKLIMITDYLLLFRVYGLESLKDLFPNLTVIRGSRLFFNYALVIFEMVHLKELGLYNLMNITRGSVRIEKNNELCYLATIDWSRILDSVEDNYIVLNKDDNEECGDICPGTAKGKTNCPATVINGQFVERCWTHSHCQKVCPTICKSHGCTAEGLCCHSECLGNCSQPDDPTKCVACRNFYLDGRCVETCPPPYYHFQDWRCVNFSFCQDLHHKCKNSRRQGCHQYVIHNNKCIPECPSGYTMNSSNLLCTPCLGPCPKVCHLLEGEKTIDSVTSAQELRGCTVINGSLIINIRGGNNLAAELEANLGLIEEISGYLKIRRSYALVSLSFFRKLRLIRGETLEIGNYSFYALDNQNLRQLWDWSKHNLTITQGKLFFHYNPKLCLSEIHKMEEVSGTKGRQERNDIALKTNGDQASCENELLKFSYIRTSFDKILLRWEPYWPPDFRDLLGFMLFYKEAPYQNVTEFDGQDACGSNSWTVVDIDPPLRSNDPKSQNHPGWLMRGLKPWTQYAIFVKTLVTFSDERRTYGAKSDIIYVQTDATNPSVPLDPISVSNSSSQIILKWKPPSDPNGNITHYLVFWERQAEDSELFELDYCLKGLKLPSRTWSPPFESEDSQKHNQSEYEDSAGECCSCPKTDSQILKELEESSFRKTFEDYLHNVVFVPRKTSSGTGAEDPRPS
Text: These compounds were examined in a cell-based assay for their ability to mimic the action of insulin. In this case, Chinese hamster ovary (CHO) cells stably transfected with a gene for human insulin receptor and expressing it on their surface were used. CHO-IR cells were stimulated with increasing concentrations of insulin, LDIV122 (same as 198), LDIV148 (same as 196), ZL-196 (an insulin mimic that includes a quinone), and LDIV99 (same as 194). Whole-cell lysates were immunoblotted with antibodies to phosphotyrosines 1162 and 1163 that lie on the activation loop in the beta-subunit of the insulin receptor.
Materials. Antibodies to tyrosine phosphorylated IR(Tyr1162/Tyr1163) are from BioSource (Camarillo, Calif.).
CHO-IR cells (Chinese hamster ovary cells overexpressing the β isoform insulin receptor) were cultured in Ham's F12 supplemented with 10% FCS, 2 mM glutamax and gentamicin at 37° C. in a 5% CO2 atmosphere. Cells were serum starved for 72 h in 12-well plates, then stimulated with increasing concentrations of insulin or compounds in KRP-Hepes for 10 min at 37° C. The cells are washed with ice-cold phosphate-buffered saline and solubilized in 2×SDS-sample buffer (50 mM Tris-HCl, pH 7.4, 5% glycerol, 2% SDS, 0.005% bromophenol blue) containing 2 mM sodium orthovanadate and 200 mM sodium fluoride. […]

| Autophosphorylation of the insulin receptor (human insulin receptor) | Compound | Cell death [1] [%] |
| --- | --- | --- |
| – | NGF: nerve growth factor, ligand of TrkA, used as reference at 100 ng/ml | 18±6 |
| dose-dependent autophosphorylation | CC(C)=CCc1cccc2c(-c3oc(CO)cc(=O)c3O)c[nH]c12 [LDIV99, 3-Hydroxy-6-hydroxymethyl-2-[7-(3-methyl-but-2-enyl)-1H-indol-3-yl]-pyran-4-one] | – |
| dose-dependent autophosphorylation | CC(C)=CCc1cccc2c(-c3c(O)c(=O)cc(CO)n3C)c[nH]c12 [LDIV148, 3-Hydroxy-6-hydroxymethyl-1-methyl-2-[7-(3-methyl-but-2-enyl)-1H-indol-3-yl]-pyridin-4-one] | – |
